Reference: ChEMBL document CHEMBL4004872, “A robust synthesis of functionalized 2H-indazoles via solid state melt reaction (SSMR) and their anti-tubercular activity” (Bioorg Med Chem Lett, 2017)
In brackets after ≈: the same amount, converted by molar mass.

What was measured:
[1] = Cytotoxicity against mouse RAW264.7 cells assessed as growth inhibition at 50 ug/ml after 48 hrs by MTT assay relative to control; assay type: cell-based; details: read-out: GI
[2] = tested on: Mycobacterium tuberculosis; test: Antitubercular activity against Mycobacterium tuberculosis H37Rv after 7 days by Alamar blue assay; assay type: functional; details: 168 h

## O=C(Nc1ccccn1)c1ccccc1-n1cc2ccccc2n1
[1]
  inhibition at 48 h, 50 ug/ml: 31.8%
[2]
  MIC99: 19.9 µM (≈ 6.26 µg/mL)

## O=C(NCc1ccc(Cl)cc1)c1ccccc1-n1cc2ccccc2n1
[1]
  inhibition at 48 h, 50 ug/ml: 28.1%
[2]
  MIC99: 8.66 µM (≈ 3.13 µg/mL)

## Cc1ccc(NC(=O)c2ccccc2-n2cc3ccccc3n2)c(C)c1
[1]
  inhibition at 48 h, 50 ug/ml: 36.7%
[2]
  MIC99: 18.3 µM (≈ 6.25 µg/mL)

## O=C(NCc1ccccc1)c1ccccc1-n1cc2ccccc2n1
[1]
  inhibition at 48 h, 50 ug/ml: 31.6%
[2]
  MIC99: 19.1 µM (≈ 6.26 µg/mL)

## O=C(NCc1ccc(F)cc1)c1ccccc1-n1cc2ccccc2n1
[2]
  MIC99: 36.3 µM (≈ 12.6 µg/mL)

## CCCCNC(=O)c1ccccc1-n1cc2ccccc2n1
[2]
  MIC99: 85.3 µM (≈ 25 µg/mL)

## CC(C)(C)NC(=O)c1ccccc1-n1cc2ccccc2n1
[2]
  MIC99: 42.7 µM (≈ 12.5 µg/mL)

## COc1ccc(NC(=O)c2ccccc2-n2cc3ccccc3n2)cc1
[2]
  MIC99: 36.4 µM (≈ 12.5 µg/mL)

## O=C(NCc1ccccc1)c1ccccc1-n1cc2ccc(Cl)cc2n1
[1]
  inhibition at 48 h, 50 ug/ml: 30.6%
[2]
  MIC99: 17.3 µM (≈ 6.26 µg/mL)

## O=C(NC1CCCCC1)c1ccccc1-n1cc2ccccc2n1
[2]
  MIC99: 78.4 µM (≈ 25 µg/mL)

## COc1ccc(CNC(=O)c2ccccc2-n2cc3ccccc3n2)cc1
[2]
  MIC99: 35 µM (≈ 12.5 µg/mL)

## O=C(Nc1ccc(F)cc1)c1ccccc1-n1cc2ccccc2n1
[2]
  MIC99: 37.8 µM (≈ 12.5 µg/mL)

## O=C(NCc1ccccc1)c1ccccc1-n1cc2cc3c(cc2n1)OCO3
[1]
  inhibition at 48 h, 50 ug/ml: 22.9%
[2]
  MIC99: 4.2 µM (≈ 1.56 µg/mL)

## O=C(NCCc1c[nH]c2ccccc12)c1ccccc1-n1cc2ccccc2n1
[1]
  inhibition at 48 h, 50 ug/ml: 18.8%
[2]
  MIC99: 16.4 µM (≈ 6.25 µg/mL)

## Cc1ccnc(NC(=O)c2ccccc2-n2cc3ccccc3n2)c1
[2]
  MIC99: 38.1 µM (≈ 12.5 µg/mL)

## COc1cc(NC(=O)c2ccccc2-n2cc3ccccc3n2)cc(OC)c1OC
[1]
  inhibition at 48 h, 50 ug/ml: 32.1%
[2]
  MIC99: 7.75 µM (≈ 3.13 µg/mL)

## O=C(Nc1ccccc1)c1ccccc1-n1cc2ccccc2n1
[1]
  inhibition at 48 h, 50 ug/ml: 39.6%
[2]
  MIC99: 15.8 µM (≈ 4.96 µg/mL)

## O=C(NCc1ccccc1)c1ccccc1-n1cc2ccc(Br)cc2n1
[2]
  MIC99: 56.4 µM (≈ 22.9 µg/mL)

## O=C(NCc1ccccc1)c1ccccc1-n1cc2cc(Br)ccc2n1
[1]
  inhibition at 48 h, 50 ug/ml: 40.5%
[2]
  MIC99: 7.72 µM (≈ 3.14 µg/mL)

## O=C(NCc1ccccc1Cl)c1ccccc1-n1cc2ccccc2n1
[1]
  inhibition at 48 h, 50 ug/ml: 23.7%
[2]
  MIC99: 10.6 µM (≈ 3.83 µg/mL)

## Cc1ccc(CNC(=O)c2ccccc2-n2cc3ccccc3n2)cc1
[1]
  inhibition at 48 h, 50 ug/ml: 34.5%
[2]
  MIC99: 9.16 µM (≈ 3.13 µg/mL)

## O=C(Nc1ccccc1O)c1ccccc1-n1cc2ccccc2n1
[2]
  MIC99: 38 µM (≈ 12.5 µg/mL)

## CC[C@@H](CO)NCCN[C@@H](CC)CO [ETHAMBUTOL]
[2]
  MIC99: 7.6 µM (≈ 1.55 µg/mL)

## NNC(=O)c1ccncc1 [ISONIAZID]
[2]
  MIC99: 0.4 µM (≈ 0.0549 µg/mL)

## CO[C@H]1/C=C/O[C@@]2(C)Oc3c(C)c(O)c4c(O)c(c(/C=N/N5CCN(C)CC5)c(O)c4c3C2=O)NC(=O)/C(C)=C\C=C\[C@H](C)[C@H](O)[C@@H](C)[C@@H](O)[C@@H](C)[C@H](OC(C)=O)[C@@H]1C [RIFAMPIN]
[2]
  MIC99: 0.5 µM (≈ 0.411 µg/mL)
